Among the data in patent US20250388592A1 (REMYND N.V., priority 2022, published 2025) are EC50 values, retold here.

The structures appear in SMILES notation.

For the experiment, the system named is M17_3TAU(P301L) cells. In words: TAU-induced cytotoxicity (LDH) in the neuroblastoma tauopathy model. Type of experiment: cell-based. The settings on record: Homo sapiens, 168 h, inhibition of TAU-induced toxicity, 7 days retinoic acid differentiation, LDH readout. The text has this: A TAU expression plasmid was constructed by sub-cloning the cDNA encoding for human TAU-P301L protein, wherein proline at position 301 is substituted by a leucine residue, into mammalian expression vector pcDNA3.1 resulting in the plasmid pcDNA3.1-TAUP301L. Plasmids pcDNA3.1 and pcDNA3.1-TAU P301L were transfected into human neuroblastoma cells (BE-M17; ATCC No. CRL-2267™) using lipofectamine reagent and subsequently, independent clonal cell lines with the plasmids stably integrated into the genome were selected by antibiotic resistance selection (Geneticin (G418)), resulting in cell lines M17.pcDNA3 and M17_3TAUP301L. Expression of the TAUP301 L gene in the M17_3TAUP301 L cells was confirmed by Western blot analysis.
Differentiation of the cells with RA leads to phosphorylation and subsequent aggregation of TAU, inducing a tauopathy in these cells. Cytotoxicity of cells was measured by quantification of lactate dehydrogenase (LDH) levels. In dead cells LDH is leaked out of the cells into the medium due to a loss of plasma-membrane integrity.
Briefly, 3 days preceding the experiment pre-cultures of M17.pcDNA3 and M17_3TAU(P301L) cells were prepared, starting from a stock culture, at a density of 50.000-100.000 cells/cm2 in detection medium (Optimem Reduced Serum without phenol red (Gibco, Cat. 31985-047) supplemented with 1% fetal calf serum (FCS), 1 mM sodium pyruvate, 1×non-essential amino acids (NEAA), 500 μg/ml G418 and 0.5×antibiotic/antimycotic (ABAM)). At the day of the experiment these precultures were diluted to ˜[…] in detection medium without FCS and 60 μL of this suspension is dispensed per well into a 96-well microtiter plate. After 3 hours of incubation at 37° C./5% C02 an equal volume of detection medium containing 2.5 μM RA was added and subsequently incubated for 7 days at 37° C./5% CO2. After 7 days, LDH activity was determined using the Promega Cytotox 96 Non-Radioactive cytotoxicity assay (Cat. G1780), according the manufacturer's instructions. Cytotoxicity is measured as the ratio of LDH increase in the supernatant divided by the LDH increase in the total cell suspension (sum of the LDH measured in cells and supernatant). Toxicity was determined after 7 days of differentiation with retinoic acid in M17_3TAU(P301 L) cells compared to M17.pcDNA3 cells.
The M17_3TAU(P301L) cell line makes it possible to assess the ability of novel compounds to inhibit TAU-induced cytotoxicity. […] Compounds were tested for their ability to hamper TAU-induced toxicity at different concentrations, ranging from low non-effective concentrations to high potent concentrations. Afterwards, the dose-dependent inhibition curve was used to calculate their EC50 (Table 3B).
Broadly, the EC50 is the concentration that produces a half-maximal response. A low value points to a more potent agent. For the compound `Cc1c(Cl)c(CN2CC3(C2)CN(C(=O)NCC2CCC(F)(F)CC2)C3)nn1C` [Cpd B203], the midpoint of the response, the EC50, lay at 15.5 nM.

`Clc1ccc(Cc2nsc(NC3CC4(CC(NCc5ccc6c(c5)OCO6)C4)C3)n2)cc1` (centres unmarked) [Cpd B320, N-(benzo[d][1,3]dioxol-5-ylmethyl)-N′-(3-(4-chlorobenzyl)-1,2,4-thiadiazol-5-yl) spiro[3.3]heptane-2,6-diamine] registered an EC50 of 1.4 nM.

Regarding `COc1cccc(CNC2CC3(C2)CC(Nc2nc(Cc4ccc(Cl)cc4)ns2)C3)c1` (centres unmarked) [Cpd B310, N-(3-(4-chlorobenzyl)-1,2,4-thiadiazol-5-yl)-N′-(3-methoxybenzyl) spiro[3.3]heptane-2,6-diamine], the EC50 turned out to be 4.6 nM.

For the compound `Cc1nc(CN2CC3(C2)CN(C(=O)NCC2CCC(F)(F)CC2)C3)cs1` [Cpd B194], the EC50 turned out to be 264 nM.

`COc1cccc(CN2CC3(C2)CN(C(=O)OC2CCC(F)(F)CC2)C3)c1` [Cpd B135]: the EC50 was under 0.19 nM.

The compound `O=C(NC1CCC(F)(F)CC1)N1CC2(CN(Cc3ccc(C(F)(F)F)cc3)C2)C1` [Cpd B460] returned an EC50 of 63 nM.

Take `Cn1ccnc1CN1CC2(C1)CN(C(=O)Cc1ccc(F)cc1)C2` [Cpd B020, 2-(4-Fluoro-phenyl)-1-[6-(1-methyl-1H-imidazol-2-ylmethyl)-2,6-diaza-spiro[3.3]hept-2-yl]-ethanone]: the EC50 was determined as 422 nM.

Regarding `O=C(OC1CCC(F)(F)CC1)N1CC2(CN(Cc3ccc(F)cn3)C2)C1` [Cpd B153], the response was half-maximal at 37.2 nM (EC50).

In turn, `COC(=O)c1ccc(CN2CC3(C2)CN(C(=O)Cc2ccc(Cl)cc2)C3)cc1` [Cpd B035, methyl 4-((6-(2-(4-chlorophenyl)acetyl)-2,6-diazaspiro[3.3]heptan-2-yl)methyl)benzoate] displayed a concentration for a half-maximal effect (EC50) of 6.06 nM.

Take `Cn1cnc(CN2CC3(C2)CN(C(=O)CC2CCC(F)(F)CC2)C3)c1Cl` [Cpd B458]: the EC50 is 65.5 nM.

`Cc1cccnc1CN1CC2(C1)CN(C(=O)NCC1CCC(F)(F)CC1)C2` [Cpd B198] had an EC50 of 16.5 nM.

With `Cn1ccc(CN2CC3(C2)CN(C(=O)NCc2ccc(F)cc2)C3)n1` [Cpd B406], the half-maximal effective concentration (EC50) was determined as 4620 nM.

`Cc1nc(CN2CC3(C2)CN(C(=O)COc2ccc(F)cc2)C3)cs1` [Cpd B103] yielded a 50% effective concentration (EC50) of 2000 nM.

Regarding `Cc1nn(C)cc1CN1CC2(C1)CN(C(=O)NCc1ccc(F)cc1)C2` [Cpd B426], a half-maximal effect (EC50) was put at 850 nM.

`O=C(OC1CCC(F)(F)CC1)N1CC2(CN(Cc3ncccc3Cl)C2)C1` [Cpd B154] registered an EC50 of 7.81 nM.

In turn, `Cc1cccnc1CN1CC2(C1)CN(C(=O)CC1CCCC1)C2` [Cpd B437] came in with an EC50 of 354 nM.

The compound `FC(F)(F)c1ccccc1CNC1CC2(C1)CC(Nc1nc(Cc3ccc(Cl)cc3)ns1)C2` (centres unmarked) [Cpd B322, N-(3-(4-chlorobenzyl)-1,2,4-thiadiazol-5-yl)-N′-(2-(trifluoromethyl)benzyl) spiro[3.3]heptane-2,6-diamine] registered an EC50 of 2.8 nM.

Take `COc1ccc(CCNC2CC3(C2)CC(Nc2nc(Cc4ccc(Cl)cc4)ns2)C3)cc1` (centres unmarked) [Cpd B333, N-(3-(4-chlorobenzyl)-1,2,4-thiadiazol-5-yl)-N′-(4-methoxyphenethyl) spiro[3.3]heptane-2,6-diamine]: the concentration giving a half-maximal response (EC50) was 2 nM.

In the case of `O=C(N1CC2(CN(Cc3ccc(F)cc3)C2)C1)C(F)(F)c1ccc(F)cc1` [Cpd B099], the EC50 was determined as 86 nM.

Regarding `COc1cccc(CN2CC3(C2)CN(C(=O)Nc2cccc(OC)c2)C3)c1` [Cpd B420], it took 1210 nM to reach a half-maximal effect (EC50).

Compound `COc1ccccc1CNC1CC2(C1)CC(Nc1nc(Cc3ccc(Cl)cc3)ns1)C2` (centres unmarked) [Cpd B305, N-(3-(4-chlorobenzyl)-1,2,4-thiadiazol-5-yl)-N′-(2-methoxybenzyl) spiro[3.3]heptane-2,6-diamine] had an EC50 of 2.2 nM.

Turning to `Cc1ccc(CN2CC3(C2)CN(C(=O)Cc2ccc(F)cc2)C3)cc1` [Cpd B009, 2-(4-Fluoro-phenyl)-1-[6-(4-methyl-benzyl)-2,6-diaza-spiro[3.3]hept-2-yl]-ethanone], a half-maximal response (EC50) required 1.06 nM.

The compound `COC(=O)c1ccc(CC(=O)N2CC3(CN(Cc4ccc(F)cc4)C3)C2)cc1` [Cpd B428] came in with an EC50 of 778 nM.

Consider `COc1cccc(CN2CC3(C2)CN(C(=O)CCC2CCCC2)C3)c1` [Cpd B071], for which the EC50 came out at 2.96 nM.

In turn, `Cc1cccnc1CN1CC2(C1)CN(C(=O)NCC1CCCCC1)C2` [Cpd B177] had a concentration for a half-maximal effect (EC50) of 5.39 nM.

`CCn1ccc(CN2CC3(C2)CN(C(=O)CC2CCC(F)(F)CC2)C3)n1` [Cpd B118] showed a concentration for a half-maximal effect (EC50) of 27.8 nM.

The compound `Cc1nc(CN2CC3(C2)CN(S(=O)(=O)Cc2cccc(C(F)(F)F)c2)C3)cs1` [Cpd B215] had a concentration for a half-maximal effect (EC50) of 3.73 nM.

On to `O=C(Cc1ccc(F)cc1)NC1CC2(CC(NCc3ccccc3)C2)C1` (centres unmarked) [Cpd B066, N-(6-(benzylamino)spiro[3.3]heptan-2-yl)-2-(4-fluorophenyl)acetamide], for which the EC50 stood at 130 nM.

As to `O=C(OC1CCC(F)(F)CC1)N1CC2(CN(Cc3ncccc3C(F)(F)F)C2)C1` [Cpd B155], the half-maximal effective concentration (EC50) amounted to 4.67 nM.

The compound `O=C(Nc1ccc(OC(F)F)cc1)N1CC2(CN(Cc3ccc(F)cc3)C2)C1` [Cpd B465] had an EC50 of 38.1 nM.

As to `Clc1ccc(Cc2nsc(NC3CC4(CC(NCc5cccc6c5OCO6)C4)C3)n2)cc1` (centres unmarked) [Cpd B330, N-(benzo[d][1,3]dioxol-4-ylmethyl)-N′-(3-(4-chlorobenzyl)-1,2,4-thiadiazol-5-yl) spiro[3.3]heptane-2,6-diamine], it took 8 nM to reach a half-maximal effect (EC50).

`Cc1csc(CN2CC3(C2)CN(C(=O)OC2CCC(F)(F)CC2)C3)c1` [Cpd B146] returned an EC50 of under 0.19 nM.

Turning to `Cc1cccc(C(=O)N2CC3(CN(Cc4ncccc4C)C3)C2)c1` [Cpd B407], the concentration giving a half-maximal response (EC50) was found to be 4310 nM.

Regarding `Cc1cccnc1CN1CC2(C1)CN(C(=O)OC1CCC(F)(F)CC1)C2` [Cpd B139], a half-maximal effect (EC50) was put at 20.6 nM.

Take `COc1cccc(CN2CC3(C2)CN(C(=O)NCc2ccc(F)cc2)C3)c1` [Cpd B181]: the 50% effective concentration (EC50) was determined as 4.98 nM.

In turn, `Cc1nc(CN2CC3(C2)CN(C(=O)OCc2ccc(Cl)cc2)C3)cs1` [Cpd B429] showed an EC50 of 746 nM.

As for `O=C(OCC1CCC(F)(F)CC1)N1CC2(CN(Cc3ncccc3Cl)C2)C1` [Cpd B160], it took 3.68 nM to reach a half-maximal effect (EC50).

Consider `Cn1ccc(CN2CC3(C2)CN(C(=O)CC2CCC(F)(F)CC2)C3)n1` [Cpd B462], for which the EC50 was 53.1 nM.

`O=C(NCc1ccc(F)cc1)N1CC2(CN(Cc3cccnc3F)C2)C1` [Cpd B432] registered a 50% effective concentration (EC50) of 482 nM.

Compound `O=C(Cc1ccc(Cl)cc1)N1CC2(CN(Cc3cccc(Cl)c3)C2)C1` [Cpd B033, 1-(6-(3-chlorobenzyl)-2,6-diazaspiro[3.3]heptan-2-yl)-2-(4-chlorophenyl)ethanone] gave an EC50 of 2.46 nM.

Compound `Cc1c(Cl)c(CN2CC3(C2)CN(C(=O)CC2CCC(F)(F)CC2)C3)nn1C` [Cpd B121] showed an EC50 of 12.5 nM.

On to `Cc1nc(CN2CC3(C2)CN(C(=O)Nc2ccc(Cl)cc2)C3)cs1` [Cpd B452], for which a half-maximal response (EC50) required 94.5 nM.

`O=C(Cc1ccc(Cl)cc1)N1CC2(CN(Cc3ccccc3)C2)C1` [Cpd B003, 1-(6-benzyl-2,6-diazaspiro[3.3]heptan-2-yl)-2-(4-chlorophenyl)ethanone] returned an EC50 of 6.97 nM.

As for `COc1cccc(CN2CC3(C2)CN(C(=O)Nc2ccc(Cl)cc2)C3)c1` [Cpd B185], the concentration for a half-maximal effect (EC50) was found to be 17.8 nM.
